Test results as given in the supplement of paper PMC9663587.

Assays:
[1] = compound: Cc1nn(C)c(COc2ccc(N3CCN(S(=O)(=O)N(C)C)CC3)cc2)c1-c1cccc2c(CCCOc3cccc4ccccc34)c(C(=O)O)n(CCN3CCOCC3)c12
Ceritinib/LDK378 = compound: Cc1cc(Nc2ncc(Cl)c(Nc3ccccc3S(=O)(=O)C(C)C)n2)c(OC(C)C)cc1C1CCNCC1 [Ceritinib/LDK378]
LEE011/Ribociclib [2] = compound: T1, CN(C)C(=O)c1cc2cnc(Nc3ccc(N4CCNCC4)cn3)nc2n1C1CCCC1 [LEE011/Ribociclib]
Doxorubicin = compound: COc1cccc2c1C(=O)c1c(O)c3c(c(O)c1C2=O)C[C@@](O)(C(=O)CO)C[C@@H]3O[C@H]1C[C@H](N)[C@H](O)[C@H](C)O1 [Doxorubicin]
[3] = compound: CCc1cnn2c(NCc3ccc[n+]([O-])c3)cc(N3CCCC[C@H]3CCO)nc12
Pictilisib/GDC0941 = compound: CS(=O)(=O)N1CCN(Cc2cc3nc(-c4cccc5[nH]ncc45)nc(N4CCOCC4)c3s2)CC1 [Pictilisib/GDC0941]
BSJ-03-123 = compound: CC(=O)c1c(C)c2cnc(Nc3ccc(N4CCN(CCOCCOCCOCCNC(=O)COc5cccc6c5C(=O)N(C5CCC(=O)NC5=O)C6=O)CC4)cn3)nc2n(C2CCCC2)c1=O [BSJ-03-123]; test: increase in dead-cell fraction, 72 h; higher = more death;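 further: breast cancer cell lines in 384-well plates, stained with Hoechst plus LIVE/DEAD far red dye and imaged, cells above an LDR intensity threshold counted dead, Hoechst-negative corpses included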
[4] = compound: CCN1CCN(Cc2ccc(Nc3ncc(F)c(-c4cc(F)c5nc(C)n(C(C)C)c5c4)n3)nc2)CC1; test: as above
LEE011/Ribociclib [5] = compound: T1, LEE011/Ribociclib; test: as above
[6] = compound: CC(=O)c1c(C)c2cnc(Nc3ccc(N4CCNCC4)cn3)nc2n(C2CCCC2)c1=O; test: as above
Neratinib/HKI272 = compound: CCOc1cc2ncc(C#N)c(Nc3ccc(OCc4ccccn4)c(Cl)c3)c2cc1NC(=O)/C=C/CN(C)C [Neratinib/HKI272]; test: as above
THZ531 = compound: CN(C)C/C=C/C(=O)Nc1ccc(C(=O)N2CCC[C@@H](Nc3ncc(Cl)c(-c4c[nH]c5ccccc45)n3)C2)cc1 [THZ531]; test: as above
YKL-5-124 = compound: C=CC(=O)Nc1ccc(C(=O)Nc2[nH]nc3c2CN(C(=O)N[C@H](CN(C)C)c2ccccc2)C3(C)C)cc1 [YKL-5-124]; test: as above
[7] = compound: CCc1cnn2c(NCc3ccc[n+]([O-])c3)cc(N3CCCC[C@H]3CCO)nc12; test: as above
THZ1 = compound: CN(C)C/C=C/C(=O)Nc1ccc(C(=O)Nc2cccc(Nc3ncc(Cl)c(-c4c[nH]c5ccccc45)n3)c2)cc1 [THZ1]; test: as above
Flavopiridol = compound: CN1CC[C@H](c2c(O)cc(O)c3c(=O)cc(-c4ccccc4Cl)oc23)[C@H](O)C1 [Flavopiridol]; test: as above
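Wherever GR50, 72 h is given: breast cancer and non-malignant breast epithelial cell lines, Deep Dye Drop or Dye Drop imaging, nine half-log doses, GR normalized to time-zero plates and DMSO-only controls.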

## SUM149
[1]
  GR50, 72 h: 5.97 µM
Ceritinib/LDK378
  GR50, 72 h: 1.7 µM
LEE011/Ribociclib [2]
  GR50, 72 h: > 10 µM
Doxorubicin
  GR50, 72 h: 0.00797 µM
[3]
  GR50, 72 h: 0.0134 µM
Pictilisib/GDC0941
  GR50, 72 h: 6.06 µM
BSJ-03-123; 0.001 µM
  increase in dead-cell fraction: -0.0068
BSJ-03-123; 0.003162 µM
  increase in dead-cell fraction: -0.0064
BSJ-03-123; 0.01 µM
  increase in dead-cell fraction: -0.0053
BSJ-03-123; 0.03162 µM
  increase in dead-cell fraction: 0.0051
BSJ-03-123; 0.1 µM
  increase in dead-cell fraction: 0.0006
BSJ-03-123; 0.3162 µM
  increase in dead-cell fraction: -0.0032
BSJ-03-123; 1 µM
  increase in dead-cell fraction: 0.0245
BSJ-03-123; 3.162 µM
  increase in dead-cell fraction: 0.0364
BSJ-03-123; 10 µM
  increase in dead-cell fraction: 0.217
[4]; 0.001 µM
  increase in dead-cell fraction: -0.0036
[4]; 0.003162 µM
  increase in dead-cell fraction: -0.0058
[4]; 0.01 µM
  increase in dead-cell fraction: -0.0009
[4]; 0.03162 µM
  increase in dead-cell fraction: -0.0068
[4]; 0.1 µM
  increase in dead-cell fraction: -0.0045
[4]; 0.3162 µM
  increase in dead-cell fraction: -0.0069
[4]; 1 µM
  increase in dead-cell fraction: -0.0076
[4]; 3.162 µM
  increase in dead-cell fraction: -0.0046
[4]; 10 µM
  increase in dead-cell fraction: 0.0956
LEE011/Ribociclib [5]; 0.001 µM
  increase in dead-cell fraction: -0.0066
LEE011/Ribociclib [5]; 0.003162 µM
  increase in dead-cell fraction: -0.0033
LEE011/Ribociclib [5]; 0.01 µM
  increase in dead-cell fraction: 0.001
LEE011/Ribociclib [5]; 0.03162 µM
  increase in dead-cell fraction: -0.0061
LEE011/Ribociclib [5]; 0.1 µM
  increase in dead-cell fraction: -0.0037
LEE011/Ribociclib [5]; 0.3162 µM
  increase in dead-cell fraction: 0.0068
LEE011/Ribociclib [5]; 1 µM
  increase in dead-cell fraction: 0.0043
LEE011/Ribociclib [5]; 3.162 µM
  increase in dead-cell fraction: 0.0014
LEE011/Ribociclib [5]; 10 µM
  increase in dead-cell fraction: 0.0135
[6]; 0.0003162 µM
  increase in dead-cell fraction: 0.0026
[6]; 0.001 µM
  increase in dead-cell fraction: 0.0019
[6]; 0.003162 µM
  increase in dead-cell fraction: 0.0012
[6]; 0.01 µM
  increase in dead-cell fraction: -0.0029
[6]; 0.03162 µM
  increase in dead-cell fraction: -0.003
[6]; 0.1 µM
  increase in dead-cell fraction: 0.0002
[6]; 0.3162 µM
  increase in dead-cell fraction: -0.0014
[6]; 1 µM
  increase in dead-cell fraction: -0.0001
[6]; 3.162 µM
  increase in dead-cell fraction: 0.0028
Neratinib/HKI272; 0.0003162 µM
  increase in dead-cell fraction: -0.0005
Neratinib/HKI272; 0.001 µM
  increase in dead-cell fraction: -0.0026
Neratinib/HKI272; 0.003162 µM
  increase in dead-cell fraction: -0.0047
Neratinib/HKI272; 0.01 µM
  increase in dead-cell fraction: -0.0034
Neratinib/HKI272; 0.03162 µM
  increase in dead-cell fraction: 0.001
Neratinib/HKI272; 0.1 µM
  increase in dead-cell fraction: 0.0172
Neratinib/HKI272; 0.3162 µM
  increase in dead-cell fraction: 0.0405
Neratinib/HKI272; 1 µM
  increase in dead-cell fraction: 0.0409
Neratinib/HKI272; 3.162 µM
  increase in dead-cell fraction: 0.0594
THZ531; 0.0001 µM
  increase in dead-cell fraction: 0.0045
THZ531; 0.0003162 µM
  increase in dead-cell fraction: -0.0031
THZ531; 0.001 µM
  increase in dead-cell fraction: 0
THZ531; 0.003162 µM
  increase in dead-cell fraction: -0.0086
THZ531; 0.01 µM
  increase in dead-cell fraction: -0.0054
THZ531; 0.03162 µM
  increase in dead-cell fraction: 0.0002
THZ531; 0.1 µM
  increase in dead-cell fraction: 0.0001
THZ531; 0.3162 µM
  increase in dead-cell fraction: 0.0691
THZ531; 1 µM
  increase in dead-cell fraction: 0.58
YKL-5-124; 0.001 µM
  increase in dead-cell fraction: 0.0758
YKL-5-124; 0.003162 µM
  increase in dead-cell fraction: 0.1
YKL-5-124; 0.01 µM
  increase in dead-cell fraction: 0.103
YKL-5-124; 0.03162 µM
  increase in dead-cell fraction: 0.0843
YKL-5-124; 0.1 µM
  increase in dead-cell fraction: 0.124
YKL-5-124; 0.3162 µM
  increase in dead-cell fraction: 0.124
YKL-5-124; 1 µM
  increase in dead-cell fraction: 0.0859
YKL-5-124; 3.162 µM
  increase in dead-cell fraction: 0.172
YKL-5-124; 10 µM
  increase in dead-cell fraction: 0.199
[7]; 0.0001 µM
  increase in dead-cell fraction: -0.0003
[7]; 0.0003162 µM
  increase in dead-cell fraction: -0.0062
[7]; 0.001 µM
  increase in dead-cell fraction: 0.0017
[7]; 0.003162 µM
  increase in dead-cell fraction: 0.0022
[7]; 0.01 µM
  increase in dead-cell fraction: 0.021
[7]; 0.03162 µM
  increase in dead-cell fraction: 0.756
[7]; 0.1 µM
  increase in dead-cell fraction: 0.832
[7]; 0.3162 µM
  increase in dead-cell fraction: 0.831
[7]; 1 µM
  increase in dead-cell fraction: 0.814
THZ1; 0.0001 µM
  increase in dead-cell fraction: -0.0005
THZ1; 0.0003162 µM
  increase in dead-cell fraction: -0.0052
THZ1; 0.001 µM
  increase in dead-cell fraction: -0.0029
THZ1; 0.003162 µM
  increase in dead-cell fraction: 0.0113
THZ1; 0.01 µM
  increase in dead-cell fraction: -0.0015
THZ1; 0.03162 µM
  increase in dead-cell fraction: 0.0274
THZ1; 0.1 µM
  increase in dead-cell fraction: 0.083
THZ1; 0.3162 µM
  increase in dead-cell fraction: 0.445
THZ1; 1 µM
  increase in dead-cell fraction: 0.589
Flavopiridol; 0.0001 µM
  increase in dead-cell fraction: 0.0065
Flavopiridol; 0.0003162 µM
  increase in dead-cell fraction: -0.0003
Flavopiridol; 0.001 µM
  increase in dead-cell fraction: 0.0038
Flavopiridol; 0.003162 µM
  increase in dead-cell fraction: -0.0072
Flavopiridol; 0.01 µM
  increase in dead-cell fraction: -0.0008
Flavopiridol; 0.03162 µM
  increase in dead-cell fraction: 0.0051
Flavopiridol; 0.1 µM
  increase in dead-cell fraction: 0.0079
Flavopiridol; 0.3162 µM
  increase in dead-cell fraction: 0.114
Flavopiridol; 1 µM
  increase in dead-cell fraction: 0.787
